Tests used:
Type in all cases: in vivo
[1] = tested on: Japanese bulrush (Scirpus juncoides); assay: Test Example 4: paddy pot test, submerged application at 2.2 to 2.8 leaf stage; settings: for Growth inhibition rate (%) Observed: 2.2 to 2.8 leaf stage, 29 days after application
Source text: (§1) Growth inhibition rate (%)=0% (equivalent to the non-treated area) to 100% (complete kill)
Paddy field soil was put into a 1/1,700 are pot, and seeds of Japanese bulrush (Scirpus juncoides) were sown and left to stand under an irrigated condition with a water depth of 3.5 cm. When Japanese bulrush reached 2.2 to 2.8 leaf stage, a wettable powder of compound A2, a wettable powder of compound B1 and an emulsifiable concentrate of benfuresate were, respectively, diluted with water and applied under submerged condition so that the active ingredients became the prescribed amounts, respectively. The state of growth was visually observed 29 days after application and evaluated in the same manner as in the above Test Example 1.

[2] = tested on: barnyardgrass (Echinochloa oryzicola vasing); assay: Test Example 5: paddy pot test, submerged application at 2.4 to 3.2 leaf stage
Source text: as §1
Paddy field soil was put into a 1/10,000 are pot, and seeds of barnyardgrass (Echinochloa oryzicola vasing) were sown and left to stand under an irrigated condition with a water depth of 3.5 cm. When barnyardgrass reached 2.4 to 3.2 leaf stage, wettable powders of compound A2 compound B1 and azimsulfuron were, respectively, diluted with water and applied under submerged condition so that the active ingredients became the prescribed amounts, respectively. The state of growth was visually observed 29 days after application and evaluated in the same manner as in the above Test Example 1.

[3] = tested on: barnyardgrass (Echinochloa oryzicola vasing); assay: Test Example 1: paddy pot test, submerged application on the next day after sowing; settings: for Growth inhibition rate (%) Observed: next day after sowing, 21 days after application
Source text: (§2) When the herbicidal activity in a case where two active ingredients are combined, is larger than the simple sum of the respective herbicidal activities of the two active ingredients (the expected activity), it is called a synergistic effect. The activity expected by the combination of two active ingredients can be calculated as follows (Colby S. R., “Weed”, vol. 15, p. 20-22, 1967). E=α+β−(α×β÷100) where α: growth inhibition rate when treated with x (g/a) of herbicide X,
(§3) β: growth inhibition rate when treated with y (g/a) of herbicide Y,
(§4) E: growth inhibition rate expected when treated with x (g/a) of herbicide X and y (g/a) of herbicide Y.
(§5) Namely when the actual growth inhibition rate (observed value) is larger than the growth inhibition rate by the above calculation (expected value), the activity by the combination can be regarded as showing a synergistic effect.
Paddy field soil was put into a 1/1,700 are pot, and seeds of barnyardgrass (Echinochloa oryzicola vasing) were sown and left to stand under an irrigated condition with a water depth of 3.5 cm. On the next day after the sowing, a wettable powder of compound A2 diluted with water and a microemulsion of compound B1 as it was were, respectively, applied under submerged condition so that the active ingredients became the prescribed amounts, respectively The state of growth was visually observed 21 days after application and the growth inhibition rate (%) evaluated in accordance with the following evaluation standard (observed value) and the growth inhibition rate (%) calculated by the above-mentioned Colby method (expected value) are shown in Table 1.
as §1

[4] = tested on: barnyardgrass (Echinochloa oryzicola vasing); assay: Test Example 2: paddy pot test, submerged application at 2 leaf stage; settings: for Growth inhibition rate (%) Observed: 2 leaf stage, 18 days after application
Source text: as §2, §3, §4, §5, §1
Paddy field soil was put into a 1/10,000 are pot, and seeds of barnyardgrass (Echinochloa oryzicola vasing) were sown and left to stand under an irrigated condition with a water depth of 3.5 cm. When barnyardgrass reached 2 leaf stage, a wettable powder of compound A2 diluted with water and a microemulsion of compound B1 as it was were, respectively, applied under submerged condition so that the active ingredients became the prescribed amounts, respectively. The state of growth was visually observed 18 days after application and evaluated in the same manner as in the above Test Example 1.

[5] = tested on: barnyardgrass (Echinochloa oryzicola vasing); assay: Test Example 3: paddy pot test, submerged application at 3 leaf stage; settings: 504 h, 21 days after application, read-out: Growth inhibition rate (%) Observed
Source text: as §2, §3, §4, §5, §1
Paddy field soil was put into a 1/10,000 are pot, and seeds of barnyardgrass (Echinochloa oryzicola vasing) were sown and left to stand under an irrigated condition with a water depth of 3.5 cm. […] The state of growth was visually observed 21 days after application and evaluated in the same manner as in the above Test Example 1.

[6] = Echinochloa oryzicola, 504 h, read-out: Growth inhibition rate (%) Observed
[7] = Schoenoplectiella juncoides, 696 h, read-out: Growth inhibition rate (%) Observed
[8] = Echinochloa oryzicola, 432 h, read-out: Growth Inhibition rate (%) Observed

CCS(=O)(=O)Oc1ccc2c(c1)C(C)(C)CO2 [Benfuresate, benfuresate, reference compound]
Growth inhibition rate (%) Observed ([1]; 6 g/a): 90% | Growth inhibition rate (%) Observed ([1]; 9 g/a): 89%

COCC(=O)OC(c1ncccc1S(=O)(=O)NC(=O)Nc1nc(OC)cc(OC)n1)C(C)F (stereo not drawn) [Compound A2, flucetosulfuron]
Growth inhibition rate (%) Observed ([2]; 0.11 g/a, 2.4 to 3.2 leaf stage, 29 days after application): 96% | Growth inhibition rate (%) Observed ([3]; 0.1 g/a): 95% | Growth inhibition rate (%) Observed ([3]; 0.2 g/a): 98% | Growth inhibition rate (%) Observed ([1]; 0.22 g/a): 87% | Growth inhibition rate (%) Observed ([4]; 0.05 g/a): 84% | Growth inhibition rate (%) Observed ([4]; 0.10 g/a): 98% | Growth inhibition rate (%) Observed ([4]; 0.15 g/a): 99%

CCOC(=O)C(Cl)Cc1cc(-n2nc(C)n(C(F)F)c2=O)c(F)cc1Cl (stereo not drawn) [Compound B1, carfentrazone-ethyl]
inhibition at 37.5 g/ha ([2]; Echinochloa oryzicola, 696 h, read-out: Growth inhibition rate (%) Observed): 5% | inhibition at 20 g/ha [3, 6]: 0% | inhibition at 30 g/ha [3, 6]: 0% | inhibition at 11.3 g/ha ([5]; 0.113 g/a): 0% | inhibition at 22.5 g/ha ([5]; 0.225 g/a): 0% | inhibition at 50 g/ha [1, 7]: 80% | inhibition at 100 g/ha [1, 7]: 100% | inhibition at 150 g/ha [1, 7]: 99% | inhibition at 30 g/ha [4, 8]: 3% | inhibition at 45 g/ha [4, 8]: 8% | inhibition at 67.5 g/ha [4, 8]: 13% | inhibition at 101.2 g/ha [4, 8]: 18%

From patent publication US20070275855A1, “Herbicidal Composition” (ISHIHARA SANGYO KAISHA, LTD., priority 2004, published 2007)
